Like-named read-outs stand apart in the source and are kept apart here.
Experiments:
[1] = biological target: T1, fibrinogen binding to thrombin-stimulated platelets (GPIIb/IIIa fibrinogen receptor) (Homo sapiens, UniProt P05106+P08514); test: Inhibition of Radiolabeled (125I) Fibrinogen Binding Assay; conditions: read-out: Inhibition of 125I-Fibrinogen (binding to) Platelet IC50
T1 construct: endogenous in cells; host or cells: washed platelets stimulated with human alpha-thrombin
Protocol: I. Inhibition of Radiolabeled (^125 I) Fibrinogen Binding Assay, which is essentially based on the method described in Proc. Natl. Acad. Sci. USA Vol. 83, pp. 5708-5712, Aug. 1986, and is as follows.
Platelets are washed free of plasma constituents by the albumin density-gradient technique. In each experimental mixture platelets in modified Tyrode's buffer are stimulated with human α-thrombin at 22°-25° C. for 10 minutes (3.125×10" platelets per liter and thrombin at […]). Hirudin is then added at a 25-fold excess for 5 minutes before addition of the radiolabeled ligand and any competing ligand. After these additions, the final platelet count in the mixture is 1×10"/liter. After incubation for an additional 30 minutes at 22°-25° C., bound and free ligand are separated by centrifuging 50 μl of the mixture through 300 μl of 20% sucrose at 12,000 xg for 4 minutes. The platelet pellet is then separated from the rest of the mixture to determine platelet-bound radioactivity. Nonspecific binding is measured in mixtures containing an excess of unlabeled ligand. When binding curves are analyzed by Scatchard analysis, nonspecific binding is derived as a fitted parameter from the binding isotherm by means of a computerized program. To determine the concentration of each inhibitory compound necessary to inhibit 50% of fibrinogen binding to thrombin-stimulated platelets (IC50), each compound is tested at 0.176 μgmol/liter (60 μg/ml). The IC50 is derived by plotting residual fibrinogen binding against the logarithm of the sample compound's concentration.

[2] = test system: Human Platelets; test: Inhibition of Fibrinogen-Mediated Platelet Aggregation; format: cell-based; conditions: thrombin-activated human platelets; for inhibition at 25 µM / Inhibition of Fibrinogen Mediated Platelet Aggregation % inhibition at 25 μM: 25 μM compound; for IC50: human fibrinogen added, rate of aggregation
Protocol: II. Inhibition of Fibrinogen--Mediated Platelet Aggregation, which is essentially based on the method described in Blood, Vol. 66, No. 4, Oct. 1985, pp. 846-952, and is as follows.
Human Platelets were isolated from freshly drawn whole blood and were suspended in 0.14 mol/L NaCl, 2.7 mmol/L […], 12 mmol/L NaHCO3, 0.42 mmol/L Na2 HPO4, 0.55 mmol/L glucose, and 5 mmol/L Hepes, pH 7.35 at 2×10^8 platelets/ml. The suspension was incubated at 37° C. An aliquot of 0.4 ml of platelet suspension was activated by human thrombin at a final concentration of 2 μg/ml of thrombin for one minute. After one minute the reaction was stopped by a thrombin inhibitor. Serial dilution of the compound being tested was then added to the activated platelet, the reaction was allowed to proceed for one minute, followed by the addition of human fibrinogen at a final concentration of […] of fibrinogen. Platelet aggregation was then recorded by an aggregometer. Rate of aggregation was used to calculate IC50.

[3] = no inhibition at concentrations of 50 μM or lower
[4] = thrombin-stimulated washed platelets, 22-25° C.

T1 sequence (P08514 32-887 limits assumed): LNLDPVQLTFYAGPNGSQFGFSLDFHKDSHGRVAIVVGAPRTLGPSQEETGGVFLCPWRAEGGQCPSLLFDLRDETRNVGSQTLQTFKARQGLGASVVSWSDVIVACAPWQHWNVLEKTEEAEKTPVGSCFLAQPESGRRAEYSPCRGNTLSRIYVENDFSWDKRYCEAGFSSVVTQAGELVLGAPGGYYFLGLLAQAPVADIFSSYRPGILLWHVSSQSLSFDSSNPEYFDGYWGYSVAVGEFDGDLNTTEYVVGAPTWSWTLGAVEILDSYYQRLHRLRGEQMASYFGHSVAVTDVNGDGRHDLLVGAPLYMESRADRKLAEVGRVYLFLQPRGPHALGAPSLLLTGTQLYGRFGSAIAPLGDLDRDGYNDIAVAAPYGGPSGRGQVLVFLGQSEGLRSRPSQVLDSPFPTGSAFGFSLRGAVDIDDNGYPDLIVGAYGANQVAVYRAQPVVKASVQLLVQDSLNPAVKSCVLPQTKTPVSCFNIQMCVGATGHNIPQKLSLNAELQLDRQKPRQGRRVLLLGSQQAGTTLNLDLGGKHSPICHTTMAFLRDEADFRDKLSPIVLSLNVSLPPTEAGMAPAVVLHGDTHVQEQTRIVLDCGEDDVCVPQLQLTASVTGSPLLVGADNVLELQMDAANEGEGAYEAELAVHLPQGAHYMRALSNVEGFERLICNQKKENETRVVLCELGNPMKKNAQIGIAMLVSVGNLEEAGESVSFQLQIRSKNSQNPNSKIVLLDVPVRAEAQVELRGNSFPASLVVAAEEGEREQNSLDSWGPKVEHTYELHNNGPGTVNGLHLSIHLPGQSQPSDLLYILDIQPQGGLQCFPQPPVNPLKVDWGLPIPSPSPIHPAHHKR
T1 sequence (P08514 891-1039 limits assumed): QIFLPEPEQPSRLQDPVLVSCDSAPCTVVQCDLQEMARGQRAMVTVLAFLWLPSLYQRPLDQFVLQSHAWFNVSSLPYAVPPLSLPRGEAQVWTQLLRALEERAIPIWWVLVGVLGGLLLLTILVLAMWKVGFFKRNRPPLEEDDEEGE
T1 sequence (P05106 27-788): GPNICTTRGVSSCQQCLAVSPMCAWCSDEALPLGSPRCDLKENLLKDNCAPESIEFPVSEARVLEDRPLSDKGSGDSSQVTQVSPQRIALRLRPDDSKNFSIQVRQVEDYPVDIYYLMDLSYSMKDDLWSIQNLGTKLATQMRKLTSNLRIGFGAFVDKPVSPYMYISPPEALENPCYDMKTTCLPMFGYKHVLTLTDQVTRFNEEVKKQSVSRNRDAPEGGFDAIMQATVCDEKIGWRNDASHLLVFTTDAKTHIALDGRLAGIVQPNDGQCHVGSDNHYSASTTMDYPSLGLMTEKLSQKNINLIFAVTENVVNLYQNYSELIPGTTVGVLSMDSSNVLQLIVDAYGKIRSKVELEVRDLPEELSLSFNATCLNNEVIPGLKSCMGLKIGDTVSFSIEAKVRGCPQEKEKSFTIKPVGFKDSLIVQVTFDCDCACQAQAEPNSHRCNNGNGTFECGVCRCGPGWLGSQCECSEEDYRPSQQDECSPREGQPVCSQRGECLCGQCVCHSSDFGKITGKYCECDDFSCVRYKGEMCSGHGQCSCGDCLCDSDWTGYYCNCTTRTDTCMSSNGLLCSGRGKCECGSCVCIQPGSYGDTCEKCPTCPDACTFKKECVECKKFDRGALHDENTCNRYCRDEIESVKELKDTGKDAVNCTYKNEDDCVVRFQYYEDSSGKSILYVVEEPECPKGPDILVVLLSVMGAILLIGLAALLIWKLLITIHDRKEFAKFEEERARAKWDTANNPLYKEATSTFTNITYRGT

Row | SMILES | IC50 [1, 3] | inhibition at 25 µM ([2]; Platelet) | IC50 [1, 4] | IC50 ([2]; Platelet) | Inhibition of Fibrinogen Mediated Platelet Aggregation % inhibition at 25 μM [2] | IC50 [2]
1 | CC(C)[C@H](NC(=O)[C@H](CC(=O)O)NC(=O)c1cccc(CCCNC(=N)N)c1)C(=O)O [3-(3-Guanidinopropyl)benzoyl-L-aspartyl-L-valine] | ≥ 50 µM | 52% |  |  |  | 
2 | CC(C)[C@H](NC(=O)[C@H](CC(=O)O)NC(=O)CCc1ccc(NC(=N)N)cc1)C(=O)O [3-(4-guanidinophenyl)propanoyl-L-aspartyl-L-valine] |  | 65% | 4.5 µM | 14 µM |  | 
3 | CC(C)[C@H](NC(=O)[C@H](CC(=O)O)NC(=O)c1cccc(NC(=N)N)c1)C(=O)O [3-Guanidinobenzoyl-L-aspartyl-L-valine, N-(3-guanidinobenzoyl)-L-aspartyl-L-valine] | ≥ 50 µM | 6.3% |  |  |  | 
4 | CC(C)[C@H](NC(=O)[C@H](CC(=O)O)NC(=O)Cc1cccc(CNC(=N)N)c1)C(=O)O [3-Guanidinomethylphenylacetoyl-L-aspartyl-L-valine] |  | 15.2% |  |  |  | 
5 | CC(C)[C@H](NC(=O)[C@H](CC(=O)O)NC(=O)c1ccc(CCNC(=N)N)cc1)C(=O)O [4-(2-quanidinoethyl)benzoyl]-L-aspartyl-L-valine] |  |  | 10.9 µM |  | 85.0% | 7.7 µM
6 | CC(C)[C@H](NC(=O)[C@H](CC(=O)O)NC(=O)c1ccc(CCCNC(=N)N)cc1)C(=O)O [4-(3-Guanidinopropyl)benzoyl-L-aspartyl-L-valine] |  | 83.3% |  | 7.6 µM |  | 
7 | CC(C)[C@H](NC(=O)[C@H](CC(=O)O)NC(=O)C=Cc1ccc(NC(=N)N)cc1)C(=O)O [4-Guanidino cinnamoyl-L-aspartyl-L-valine] |  | 25% | 0.25 µM | 2.8 µM |  | 
8 | CC(C)[C@H](NC(=O)[C@H](CC(=O)O)NC(=O)c1ccc(NC(=N)N)cc1)C(=O)O [4-Guanidinobenzoyl-L-aspartyl-L-valine, N-(4-quanidinobenzoyl)-L-aspartyl-L-valine] |  |  |  |  | 33.0% | 
9 | CC(C)[C@H](NC(=O)[C@H](CC(=O)O)NC(=O)Cc1ccc(CNC(=N)N)cc1)C(=O)O [4-Guanidinomethyl phenylacetoyl-L-aspartyl-L-valine] | ≥ 50 µM | 42% |  |  |  | 
10 | CC(C)[C@H](NC(=O)[C@H](CC(=O)O)NC(=O)c1cccc(CNC(=N)N)c1)C(=O)O [N-(3-guanidinomethylbenzoyl)-L-aspartyl-L-valine] | ≥ 50 µM | 53% |  | 30.2 µM |  | 
11 | CC(C)[C@H](NC(=O)[C@H](CC(=O)O)NC(=O)c1ccc(CNC(=N)N)cc1)C(=O)O [N-(4-guanidinomethylbenzoyl)-L-aspartyl-L-valine] |  | 16% | 22 µM |  |  | 
12 | CC(C)[C@H](NC(=O)[C@H](CC(=O)O)NC(=O)Cc1ccc(NC(=N)N)cc1)C(=O)O [N-(4-guanidinophenylacetoyl)-L-aspartyl-L-valine] |  | 43% | 20 µM |  |  | 
13 | CC(C)[C@H](NC(=O)[C@H](CC(=O)O)NC(=O)c1cccc(CCNC(=N)N)c1)C(=O)O [N-[3-(2-guanidinoethyl)benzoyl]-L-aspartyl-L-valine] |  | 37% | 115 µM | 33.1 µM |  | 

Reference: US5086069A, “Anti-thrombotic peptide and pseudopeptide derivatives” (Rorer Pharmaceutical Corporation, priority 1990, dated 1992)
